Experimental data as given in paper PMC8160911, “Anti-Melanogenic Properties of Velutin and Its Analogs” (Molecules, 2021).
pEC50, pIC50: −log10 of the molar value. Entries after “also recorded” stand apart in the source; their conditions may differ. Where two headings read alike, the source gives them in different places. Each block holds one compound with its values, some of them ahead of it.

Tests used:
[1] = ABTS free radical scavenging activity; conditions: for pEC50: 10 min in the dark at RT
Experimental: In order to evaluate the antioxidant activity of the velutin derivatives, the ABTS radical scavenging activity was determined, as previously described. To generate the ABTS radical, 10 mL of 7 mM ABTS was mixed with 176 μL of 140 mM potassium peroxydisulfate in dH2O, and incubated in the dark at room temperature (RT) for 16 h, prior to use. The ABTS radical solution was diluted with absolute methanol, to obtain an absorbance of near 0.7 at 734 nm. Aliquots of 100 μL of each derivative in the indicated concentration range 2 to 200 μM were added to 100 μL of the diluted ABTS radical solution, and incubated for 10 min in the dark at RT. The absorbance was then measured at 732 nm using a SpectraMax M5 Multi-Mode microplate reader (Molecular Devices, Sunnyvale, CA, USA). The ABTS radical scavenging activity was calculated as follows:ABTS radical scavenging activity (%) = 1 − (Asample/Acontrol) × 100(1)

mushroom tyrosinase = biological target: T1, mushroom tyrosinase (Agaricus bisporus, UniProt C7FF04); assay: In vitro mushroom tyrosinase inhibition (dopachrome formation from L-tyrosine); assay type: biochemical
T1 construct: purchased Sigma-Aldrich
Experimental: The inhibitory effect of velutin derivatives on tyrosinase activity was assessed by the amount of dopachrome synthesized from the catalytic reaction of tyrosinase. […] Then, 100 μL of 0.4 mM L-tyrosine was added to each well, followed by incubation for an additional 10 min at 37 °C.

B16F10 melanoma cells = assay: Melanin content in α-MSH-stimulated melanoma cells; assay type: cell-based, murine; conditions: 48 h; for effect on α-MSH-stimulated melanogenesis: 10 μM; for inhibition at 10 µM: Mus musculus, B16-F10, 10 μM, read-out: inhibition of α-MSH-stimulated melanogenesis
Experimental: (§1) B16F10 murine melanoma cells were cultured in DMEM medium (Gibco, Gaithersburg, USA) supplemented with 10% heat-inactivated fetal bovine serum (Gibco), 100 units/mL penicillin, and 100 μg/mL streptomycin (Gibco), at 37 °C under humidified 5% CO2.
The melanin content was determined as previously described, with some modifications. The melanoma cells were cultured in a 6-well plate for 24 h. They were treated with the indicated concentrations of velutin derivatives for a further 48 h, in the presence of 100 nM α–MSH. After washing twice with chilled Dulbecco’s phosphate buffered saline supplemented with calcium chloride and magnesium chloride (D-PBS, Gibco), the resulting cells were detached by incubation with trypsin–EDTA solution. After centrifugation at 1000 rpm for 3 min, the cell pellet was dissolved in 150 μL of 1 M NaOH containing 10% DMSO for 1 h at 60 °C. The melanin content was determined by the absorbance at 405 nm, using the microplate reader.
(§2) Figure 3 Effect of velutin derivatives on intracellular melanin synthesis in B16F10 melanoma cells. B16F10 cells were treated with 0.1% DMSO as vehicle, or with 10 μM of each derivative, for 48 h. (A) Melanin content in the B16F10 cells was determined using a photometric method, as described in the Experimental Section. (B) Cellular tyrosinase activity was determined by measuring dopachrome generated by the enzymatic reaction of cell lysates with L-DOPA. Data are expressed as the mean ± SD of three independent experiments (** p < 0.005, *** p < 0.001 as compared to α-MSH-stimulated B16F10 cells).

[2] = test system: intracellular tyrosinase in B16F10 cells; assay: Cellular tyrosinase activity in α-MSH-stimulated melanoma cells (L-DOPA to dopachrome in lysates); assay type: cell-based, murine; conditions: 48 h; for reversal of α-MSH-mediated tyrosinase activation / effect on α-MSH-mediated intracellular tyrosinase activation: 10 μM, 100 nM α-MSH
Experimental: as §1
Tyrosinase activity in B16 cells was examined on the basis of the amount of dopachrome produced from the catalytic reaction of intracellular tyrosinase. In brief, the melanoma cells were cultured in a 6-well plate for 24 h, followed by treatment with different concentrations of velutin derivatives for a further 48 h, in the presence of 100 nM of α–MSH. After washing twice with ice-cold D-PBS, the cells were lysed in 200 μL of radio-immunoprecipitation assay (RIPA) buffer (Sigma-Aldrich), containing protease and phosphatase inhibitors. After centrifugation of the cell lysate collected from each well at 15,000× g for 15 min, 100 μL of supernatant was mixed with 100 μL of 1 mM L-DOPA in PBS (pH 6.8), followed by incubation for 30 min at 37 °C. The absorbance of dopachrome was measured at 475 nm using the microplate reader. Data were normalized with protein concentration, determined by bicinchoninic acid assay.
as §2

[3] = test system: B16F10 murine melanoma cells; assay: Cell viability / cytotoxicity by MTT assay; assay type: cell-based; conditions: for death rate: 20 μM
Experimental: as §1
The viability of B16F10 cells was determined using an MTT assay, as previously described. In brief, B16F10 cells were seeded in 24-well plates at a density of 1 × 10^4 cells per well. After 24 h, the cells were treated with the indicated concentrations of velutin derivatives for 48 h. The cells were then incubated with MTT solution for 4 h, and the reduced formazan crystals were dissolved in DMSO. The resulting solution was transferred to 96-well plates, and the absorbance was measured at 540 nm, using a SpectraMax M5 Multi-Mode microplate reader.
Figure 2 Cytotoxicity of velutin derivatives in the B16F10 melanoma cells. B16F10 cells were treated with 0.1% DMSO as vehicle, or with 20 μM of each derivative, for 24 h. Cell viability was determined by the MTT assay, as described in the Experimental Section. Data are expressed as the mean ± SD of three independent experiments (** p < 0.005, *** p < 0.001 compared to the control cells).

[4] = 50 U/mL mushroom tyrosinase, L-tyrosine substrate, read-out: IC50 in Mushroom Tyrosinase Activity

T1 sequence (C7FF04 1-392 limits assumed): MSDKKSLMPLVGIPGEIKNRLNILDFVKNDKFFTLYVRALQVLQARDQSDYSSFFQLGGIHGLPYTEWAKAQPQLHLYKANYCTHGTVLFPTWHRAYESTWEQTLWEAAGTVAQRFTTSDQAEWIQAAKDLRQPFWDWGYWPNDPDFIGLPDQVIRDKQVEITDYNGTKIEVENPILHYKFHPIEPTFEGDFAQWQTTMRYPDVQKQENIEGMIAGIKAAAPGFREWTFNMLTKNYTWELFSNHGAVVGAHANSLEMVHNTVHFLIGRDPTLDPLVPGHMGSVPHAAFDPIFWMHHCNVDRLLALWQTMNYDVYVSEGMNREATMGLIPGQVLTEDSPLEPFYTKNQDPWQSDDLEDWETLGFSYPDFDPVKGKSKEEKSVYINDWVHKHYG

Compound: COc1cc(O)c2c(=O)cc(-c3ccc(O)cc3)oc2c1 [Compound V4, Genkwanin]
pEC50 [1]: 4.25
pIC50 (mushroom tyrosinase): 3.69
inhibition at 10 µM (B16F10 melanoma cells; 100 nM α-MSH): 69.1%
reversal of α-MSH-mediated tyrosinase activation [2]: 100%

Compound: COc1cc(O)c2c(=O)cc(-c3ccc(O)c(O)c3)oc2c1 [Compound V8, 2-(3,4-Dihydroxyphenyl)-5-hydroxy-7-methoxy-4H-chromen-4-one]
pEC50 [1]: 5.26
pIC50 (mushroom tyrosinase; [4]): 3.69
death rate [3]: 71.8%

Compound: COc1cc(O)c2c(=O)cc(-c3ccc(OC)c(OC)c3)oc2c1 [Compound V9, 2-(3,4-Dimethoxyphenyl)-5-hydroxy-7-methoxy-4H-chromen-4-one]
pEC50 [1]: 4.00
pIC50 (mushroom tyrosinase; [4]): 3.15
effect on α-MSH-stimulated melanogenesis (B16F10 melanoma cells; 100 nM α-MSH): not significantly changed
effect on α-MSH-mediated intracellular tyrosinase activation [2]: did not

Compound: COc1cc(OC)c2c(=O)cc(-c3ccc(OC)c(OC)c3)oc2c1 [Compound V10, 2-(3,4-Dimethoxyphenyl)-5,7-dimethoxy-4H-chromen-4-one]
effect on radical scavenging activity [1]: no significant effect
death rate [3]: 24.0%
effect on α-MSH-stimulated melanogenesis (B16F10 melanoma cells; 100 nM α-MSH): not significantly changed
effect on α-MSH-mediated intracellular tyrosinase activation [2]: did not

Compound: O=c1cc(-c2ccc(O)c(O)c2)oc2cc(O)cc(O)c12 [Compound V11, luteolin]
pEC50 [1]: 5.21
pIC50 (mushroom tyrosinase; [4]): 4.44
death rate [3]: 69.7%
effect on cell viability / cytotoxicity ([3]; concentrations up to 20 μM): cytotoxicity

Compound: O=c1cc(-c2ccccc2)oc2ccccc12 [Compound V12, 2-Phenylchromen-4-one]
effect on radical scavenging activity [1]: no significant effect

Compound: α-melanocyte stimulating hormone [α–MSH, reference compound]
increase of melanin content by α-MSH (B16F10 melanoma cells; 100 nM α-MSH alone): 1.9 fold
activation of tyrosinase by α-MSH ([2]; 100 nM α-MSH alone): approximately 1.7 fold

More lines, main results first:

pEC50 [1]: 4.90
Compound: OC[C@H]1O[C@@H](Oc2ccc(O)cc2)[C@H](O)[C@@H](O)[C@@H]1O [Arbutin, arbutin, reference compound]

pEC50 [1]: 4.64
pIC50 (mushroom tyrosinase; [4]): 3.04
Compound: COc1cc(O)c2c(=O)cc(-c3ccc(O)c(OC)c3)oc2c1 [Compound V1, Velutin]
effect on α-MSH-stimulated melanogenesis (B16F10 melanoma cells; 100 nM α-MSH): completely inhibited
reversal of α-MSH-mediated tyrosinase activation [2]: 87%

pEC50 [1]: 4.66
Compound: COc1ccc2c(=O)cc(-c3ccc(O)c(OC)c3)oc2c1 [Compound V2, 2-(4-Hydroxy-3-methoxyphenyl)-7-methoxy-4H-chromen-4-one]
effect on α-MSH-stimulated melanogenesis (B16F10 melanoma cells; 100 nM α-MSH): completely inhibited
effect on α-MSH-mediated intracellular tyrosinase activation [2]: did not

pEC50 [1]: 4.63
Compound: COc1cc(-c2cc(=O)c3c(O)cccc3o2)ccc1O [Compound V3, 5-Hydroxy-2-(4-hydroxy-3-methoxyphenyl)-4H-chromen-4-one]
inhibition at 10 µM (B16F10 melanoma cells; 100 nM α-MSH): 50.7%
reversal of α-MSH-mediated tyrosinase activation [2]: 97%

pEC50 [1]: 4.02
Compound: COc1cccc(-c2cc(=O)c3c(O)cc(OC)cc3o2)c1 [Compound V5, 5-Hydroxy-7-methoxy-2-(3-methoxyphenyl)-4H-chromen-4-one]
inhibition at 10 µM (B16F10 melanoma cells; 100 nM α-MSH): 39.3%
reversal of α-MSH-mediated tyrosinase activation [2]: 80%

pEC50 [1]: 4.62
Compound: COc1cc(OC)c2c(=O)cc(-c3ccc(O)c(OC)c3)oc2c1 [Compound V6, 2-(4-Hydroxy-3-methoxyphenyl)-5,7-dimethoxy-4H-chromen-4-one]
increase of melanin synthesis (B16F10 melanoma cells; 10 μM derivative, 100 nM α-MSH): 3.0 fold

pEC50 [1]: 4.66
Compound: COc1cc(-c2cc(=O)c3c(O)cc(O)cc3o2)ccc1O [Compound V7, Chrysoeriol]
effect on α-MSH-stimulated melanogenesis (B16F10 melanoma cells; 100 nM α-MSH): not significantly changed; also recorded: no effect
effect on α-MSH-mediated intracellular tyrosinase activation [2]: did not; also recorded: no effect
